# Measured values published in patent publication US9458154B2, “Kinase inhibitors” (Chiesi Farmaceutici S.p.A., priority 2011, dated 2016).
# Target: T1, p38alpha (Homo sapiens, UniProt Q16539)
# T1 construct: purchased Invitrogen PV3304
# Assay: P38alpha Enzyme Inhibition Assay (Alphascreen kinase activity assay)
# Format: biochemical
# Conditions: 100 pM p38alpha, ATF-2 fusion protein substrate, 250 μM ATP, 2 hours preincubation at 25° C.; read-out: p38α inhibition
# Description: P38alpha Enzyme Inhibition Assay
# The inhibitory activity of compounds was determined using an Alphascreen® (Perkin Elmer) based kinase activity assay. Kinase reactions consisted of 25 mM HEPES pH 7.5, 10 mM MgCl2, 100 μM Na3VO4, 2 mM DTT, 0.05 mg/ml Tween 20, 100 pM p38alpha (Invitrogen, PV3304), 1% DMSO and 0.3 μg/ml ATF-2 fusion protein (New England Biolabs, 9224). Compounds were incubated under these conditions for 2 hours, at 25° C., prior to the initiation of the kinase activity by the addition of the 250 μM ATP. Reaction volumes were 20 uL. After 1 hr at 25° C. reactions were stopped by the adding 10 uL of 25 mM HEPES pH 7.5 containing 62.5 mM EDTA, 0.05% Triton X-100, 10% BSA and 0.83 ng/uL anti-phospho-ATF2 antibody (Abcam, ab28812). Detection was performed by measuring luminescence following the addition of Alphascreen Donor beads (Perkin Elmer 6765300) and Protein A Alphascreen Acceptor beads (Perkin Elmer 6760137), both at a final concentration of 20 ug/ml. IC50 values were determined from concentration-response curves.
# T1 sequence (Q16539 whole entry): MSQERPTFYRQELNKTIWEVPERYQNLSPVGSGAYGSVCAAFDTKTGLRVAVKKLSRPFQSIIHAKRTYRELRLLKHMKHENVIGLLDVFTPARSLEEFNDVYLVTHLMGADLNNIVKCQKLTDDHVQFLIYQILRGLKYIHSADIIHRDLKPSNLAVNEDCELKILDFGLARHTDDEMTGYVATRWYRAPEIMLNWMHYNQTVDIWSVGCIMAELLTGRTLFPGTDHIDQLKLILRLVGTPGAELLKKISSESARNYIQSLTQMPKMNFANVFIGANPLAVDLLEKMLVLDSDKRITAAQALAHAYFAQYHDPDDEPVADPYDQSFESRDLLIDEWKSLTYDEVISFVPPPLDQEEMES
row,SMILES,IC50
1,"Cc1ccc(-n2nc(C(C)(C)C)cc2NC(=O)N[C@H]2CC[C@@H](Oc3ccc4nnc(C5CCCCC5)n4c3)c3ccccc32)cc1 [Example 26, 1-(5-tert-Butyl-2-p-tolyl-2H-pyrazol-3-yl)-3-[(1S,4R)-4-(3-cyclohexyl-[1,2,4]triazolo[4,3-a]pyridin-6-yloxy)-1,2,3,4-tetrahydro-naphthalen-1-yl]-urea]",< 0.01 µM
2,"CC(C)c1nnc2ccc(O[C@H]3CC[C@H](NC(=O)Nc4cc(C(C)(C)C)nn4-c4ccc(Cl)c(O)c4)c4ccccc43)cn12 [Example 27, 1-[5-tert-Butyl-2-(4-chloro-3-hydroxy-phenyl)-2H-pyrazol-3-yl]-3-[(1S,4S)-4-(3-isopropyl-[1,2,4]triazolo[4,3-a]pyridin-6-yloxy)-1,2,3,4-tetrahydro-naphthalen-1-yl]-urea]",< 0.01 µM
3,"COc1c(NC(=O)N[C@H]2CC[C@@H](Oc3ccc4nnc(C(C)C)n4c3)c3ccccc32)cc(C(C)(C)C)cc1NS(C)(=O)=O [Example 28, N-(5-tert-Butyl-3-{3-[(1S,4R)-4-(3-isopropyl-[1,2,4]triazolo[4,3-a]pyridin-6-yloxy)-1,2,3,4-tetrahydro-naphthalen-1-yl]-ureido}-2-methoxy-phenyl)-methanesulfonamide]",< 0.01 µM

# More lines, now with the values ahead:
row,IC50,SMILES
1,< 0.01 µM,"CC(C)c1nnc2ccc(O[C@@H]3CC[C@H](NC(=O)Nc4cc(F)cc(N5CCOCC5)c4)c4ccccc43)cn12 [Example 29, 1-(3-Fluoro-5-morpholin-4-yl-phenyl)-3-[(1S,4R)-4-(3-isopropyl-[1,2,4]triazolo[4,3-a]pyridin-6-yloxy)-1,2,3,4-tetrahydro-naphthalen-1-yl]-urea]"
2,< 0.01 µM,"CC(C)c1nnc2ccc(O[C@H]3CC[C@H](NC(=O)Nc4cc(F)cc(N5CCOCC5)c4)c4ccccc43)cn12 [Example 30, 1-(3-Fluoro-5-morpholin-4-yl-phenyl)-3-[(1S,4S)-4-(3-isopropyl-[1,2,4]triazolo[4,3-a]pyridin-6-yloxy)-1,2,3,4-tetrahydro-naphthalen-1-yl]-urea]"
3,< 0.01 µM,"CC(C)c1nnc2ccc(O[C@@H]3CC[C@H](NC(=O)Nc4cc(C(C)(C)C)nn4-c4ccc(F)c(CN5CCOCC5)c4)c4ccccc43)cn12 [Example 31, 1-{5-tert-Butyl-2-(4-fluoro-3-morpholin-4-ylmethyl-phenyl)-2H-pyrazol-3-yl}-3-[(1S,4R)-4-(3-isopropyl-[1,2,4]triazolo[4,3-a]pyridin-6-yloxy)-1,2,3,4-tetrahydro-naphthalen-1-yl]-urea]"
